In PubChem BioAssay (NCI):
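All cell lines were grown in 96-well plates and treated with compound for 48 hours. TGI is the concentration that stops growth completely.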

Legend:
Experiment in all cases: DTP human tumour cell line panel, 48 h
HCT-116 colon = tested on: HCT-116 colon
BT-549 breast = tested on: BT-549 breast
SK-MEL-28 melanoma = tested on: SK-MEL-28 melanoma
LOX IMVI melanoma = tested on: LOX IMVI melanoma
MALME-3M melanoma = tested on: MALME-3M melanoma
SK-OV-3 ovarian = tested on: SK-OV-3 ovarian
UACC-62 melanoma = tested on: UACC-62 melanoma
NCI/ADR-RES ovarian = tested on: NCI/ADR-RES ovarian
EKVX NSCLC = tested on: EKVX NSCLC
KM12 colon = tested on: KM12 colon
CCRF-CEM leukemia = tested on: CCRF-CEM leukemia
HS 578T breast = tested on: HS 578T breast
SR leukemia = tested on: SR leukemia
SF-539 CNS = tested on: SF-539 CNS
UO-31 renal = tested on: UO-31 renal
RXF 393 renal = tested on: RXF 393 renal
A498 renal = tested on: A498 renal
MDA-N = tested on: MDA-N
MOLT-4 leukemia = tested on: MOLT-4 leukemia
HCT-15 colon = tested on: HCT-15 colon
NCI-H460 lung = tested on: NCI-H460 lung
MDA-MB-435 = tested on: MDA-MB-435
A549 NSCLC = tested on: A549 NSCLC
PC-3 prostate = tested on: PC-3 prostate
UACC-257 melanoma = tested on: UACC-257 melanoma
MCF7 breast = tested on: MCF7 breast
ACHN renal = tested on: ACHN renal
OVCAR-8 ovarian = tested on: OVCAR-8 ovarian
IGROV1 ovarian = tested on: IGROV1 ovarian
OVCAR-4 ovarian = tested on: OVCAR-4 ovarian
M14 melanoma = tested on: M14 melanoma
NCI-H23 lung = tested on: NCI-H23 lung
786-0 renal = tested on: 786-0 renal
SW-620 colon = tested on: SW-620 colon
OVCAR-3 ovarian = tested on: OVCAR-3 ovarian
OVCAR-5 ovarian = tested on: OVCAR-5 ovarian
SF-295 CNS = tested on: SF-295 CNS
SNB-19 CNS = tested on: SNB-19 CNS
SK-MEL-5 melanoma = tested on: SK-MEL-5 melanoma
HOP-62 NSCLC = tested on: HOP-62 NSCLC
SK-MEL-2 melanoma = tested on: SK-MEL-2 melanoma
HT29 colon = tested on: HT29 colon
SN12C renal = tested on: SN12C renal
TK-10 renal = tested on: TK-10 renal
COLO 205 colon = tested on: COLO 205 colon
NCI-H226 lung = tested on: NCI-H226 lung
U251 CNS = tested on: U251 CNS
HOP-92 NSCLC = tested on: HOP-92 NSCLC
MDA-MB-231 breast = tested on: MDA-MB-231 breast
K-562 leukemia = tested on: K-562 leukemia
HL-60(TB) leukemia = tested on: HL-60(TB) leukemia
CAKI-1 renal = tested on: CAKI-1 renal
T-47D breast = tested on: T-47D breast
SNB-75 CNS = tested on: SNB-75 CNS
NCI-H522 lung = tested on: NCI-H522 lung
HCC-2998 colon = tested on: HCC-2998 colon
RPMI-8226 leukemia = tested on: RPMI-8226 leukemia
DU-145 prostate = tested on: DU-145 prostate
SF-268 CNS = tested on: SF-268 CNS

## C=C1CC[C@]2(C)[C@H](CC[C@@]34C[C@@H](CC[C@H]32)[C@@H](C(=O)O)C4)C1(C)C
HCT-116 colon
  TGI: > 12.5 µM
BT-549 breast
  TGI: > 12.5 µM
SK-MEL-28 melanoma
  TGI: > 12.5 µM
LOX IMVI melanoma
  TGI: > 12.5 µM
MALME-3M melanoma
  TGI: > 12.5 µM
SK-OV-3 ovarian
  TGI: > 12.5 µM
UACC-62 melanoma
  TGI: > 12.5 µM
NCI/ADR-RES ovarian
  TGI: > 12.5 µM
EKVX NSCLC
  TGI: > 12.5 µM
KM12 colon
  TGI: > 12.5 µM
CCRF-CEM leukemia
  TGI: > 12.5 µM
HS 578T breast
  TGI: > 12.5 µM
SR leukemia
  TGI: > 12.5 µM
SF-539 CNS
  TGI: > 12.5 µM
UO-31 renal
  TGI: > 12.5 µM
RXF 393 renal
  TGI: > 12.5 µM
A498 renal
  TGI: 9.3 µM
MDA-N
  TGI: > 12.5 µM
MOLT-4 leukemia
  TGI: > 12.5 µM
HCT-15 colon
  TGI: > 12.5 µM
NCI-H460 lung
  TGI: > 12.5 µM
MDA-MB-435
  TGI: > 12.5 µM
A549 NSCLC
  TGI: > 12.5 µM
PC-3 prostate
  TGI: > 12.5 µM
UACC-257 melanoma
  TGI: > 12.5 µM
MCF7 breast
  TGI: > 12.5 µM
ACHN renal
  TGI: > 12.5 µM
OVCAR-8 ovarian
  TGI: > 12.5 µM
IGROV1 ovarian
  TGI: > 12.5 µM
OVCAR-4 ovarian
  TGI: > 12.5 µM
M14 melanoma
  TGI: > 12.5 µM
NCI-H23 lung
  TGI: > 12.5 µM
786-0 renal
  TGI: > 12.5 µM
SW-620 colon
  TGI: > 12.5 µM
OVCAR-3 ovarian
  TGI: > 12.5 µM
OVCAR-5 ovarian
  TGI: > 12.5 µM
SF-295 CNS
  TGI: > 12.5 µM
SNB-19 CNS
  TGI: > 12.5 µM
SK-MEL-5 melanoma
  TGI: > 12.5 µM
HOP-62 NSCLC
  TGI: > 12.5 µM
SK-MEL-2 melanoma
  TGI: > 12.5 µM
HT29 colon
  TGI: > 12.5 µM
SN12C renal
  TGI: > 12.5 µM
TK-10 renal
  TGI: > 12.5 µM
COLO 205 colon
  TGI: > 12.5 µM
NCI-H226 lung
  TGI: > 12.5 µM
U251 CNS
  TGI: > 12.5 µM
HOP-92 NSCLC
  TGI: > 12.5 µM
MDA-MB-231 breast
  TGI: > 12.5 µM
K-562 leukemia
  TGI: > 12.5 µM
HL-60(TB) leukemia
  TGI: > 12.5 µM
CAKI-1 renal
  TGI: > 12.5 µM

## O=C(CCC1CCCCC1)NCc1ccc(C(=O)O)cc1
HCT-116 colon
  TGI: > 100 µM
BT-549 breast
  TGI: > 100 µM
SK-MEL-28 melanoma
  TGI: > 100 µM
LOX IMVI melanoma
  TGI: > 100 µM
MALME-3M melanoma
  TGI: > 100 µM
SK-OV-3 ovarian
  TGI: > 100 µM
UACC-62 melanoma
  TGI: > 100 µM
NCI/ADR-RES ovarian
  TGI: > 100 µM
T-47D breast
  TGI: > 100 µM
SNB-75 CNS
  TGI: > 100 µM
EKVX NSCLC
  TGI: > 100 µM
KM12 colon
  TGI: > 100 µM
CCRF-CEM leukemia
  TGI: > 100 µM
NCI-H522 lung
  TGI: > 100 µM
SR leukemia
  TGI: > 100 µM
SF-539 CNS
  TGI: > 100 µM
UO-31 renal
  TGI: > 100 µM
RXF 393 renal
  TGI: > 100 µM
A498 renal
  TGI: > 100 µM
MDA-N
  TGI: > 100 µM
MOLT-4 leukemia
  TGI: > 100 µM
HCT-15 colon
  TGI: > 100 µM
NCI-H460 lung
  TGI: > 100 µM
MDA-MB-435
  TGI: > 100 µM
A549 NSCLC
  TGI: > 100 µM
HCC-2998 colon
  TGI: > 100 µM
PC-3 prostate
  TGI: > 100 µM
UACC-257 melanoma
  TGI: > 100 µM
MCF7 breast
  TGI: > 100 µM
ACHN renal
  TGI: > 100 µM
RPMI-8226 leukemia
  TGI: > 100 µM
DU-145 prostate
  TGI: > 100 µM
OVCAR-8 ovarian
  TGI: > 100 µM
IGROV1 ovarian
  TGI: > 100 µM
OVCAR-4 ovarian
  TGI: > 100 µM
M14 melanoma
  TGI: > 100 µM
NCI-H23 lung
  TGI: > 100 µM
786-0 renal
  TGI: > 100 µM
SW-620 colon
  TGI: > 100 µM
OVCAR-3 ovarian
  TGI: > 100 µM
OVCAR-5 ovarian
  TGI: > 100 µM
SF-295 CNS
  TGI: > 100 µM
SNB-19 CNS
  TGI: > 100 µM
SK-MEL-5 melanoma
  TGI: > 100 µM
HOP-62 NSCLC
  TGI: > 100 µM
SK-MEL-2 melanoma
  TGI: > 100 µM
HT29 colon
  TGI: > 100 µM
SN12C renal
  TGI: > 100 µM
TK-10 renal
  TGI: > 100 µM
COLO 205 colon
  TGI: > 100 µM
NCI-H226 lung
  TGI: > 100 µM
SF-268 CNS
  TGI: > 100 µM
U251 CNS
  TGI: > 100 µM
HOP-92 NSCLC
  TGI: > 100 µM
MDA-MB-231 breast
  TGI: > 100 µM
K-562 leukemia
  TGI: > 100 µM
CAKI-1 renal
  TGI: > 100 µM

## CC(NC(=O)OC(C)(C)C)C(=O)NC1CCCC1 (centres undefined)
HCT-116 colon
  TGI: > 100 µM
SK-MEL-28 melanoma
  TGI: > 100 µM
LOX IMVI melanoma
  TGI: > 100 µM
MALME-3M melanoma
  TGI: > 100 µM
SK-OV-3 ovarian
  TGI: > 100 µM
NCI/ADR-RES ovarian
  TGI: > 100 µM
SNB-75 CNS
  TGI: > 100 µM
EKVX NSCLC
  TGI: > 100 µM
KM12 colon
  TGI: > 100 µM
CCRF-CEM leukemia
  TGI: > 100 µM
NCI-H522 lung
  TGI: > 100 µM
HS 578T breast
  TGI: > 100 µM
SR leukemia
  TGI: > 100 µM
UO-31 renal
  TGI: > 100 µM
RXF 393 renal
  TGI: > 100 µM
A498 renal
  TGI: > 100 µM
MDA-N
  TGI: > 100 µM
MOLT-4 leukemia
  TGI: > 100 µM
NCI-H460 lung
  TGI: > 100 µM
MDA-MB-435
  TGI: > 100 µM
A549 NSCLC
  TGI: > 100 µM
HCC-2998 colon
  TGI: > 100 µM
PC-3 prostate
  TGI: > 100 µM
UACC-257 melanoma
  TGI: > 100 µM
MCF7 breast
  TGI: > 100 µM
ACHN renal
  TGI: > 100 µM
RPMI-8226 leukemia
  TGI: > 100 µM
DU-145 prostate
  TGI: > 100 µM
OVCAR-8 ovarian
  TGI: > 100 µM
IGROV1 ovarian
  TGI: > 100 µM
OVCAR-4 ovarian
  TGI: > 100 µM
M14 melanoma
  TGI: > 100 µM
NCI-H23 lung
  TGI: > 100 µM
786-0 renal
  TGI: > 100 µM
SW-620 colon
  TGI: > 100 µM
OVCAR-3 ovarian
  TGI: > 100 µM
OVCAR-5 ovarian
  TGI: > 100 µM
SF-295 CNS
  TGI: > 100 µM
SNB-19 CNS
  TGI: > 100 µM
SK-MEL-5 melanoma
  TGI: > 100 µM
HT29 colon
  TGI: > 100 µM
SN12C renal
  TGI: > 100 µM
TK-10 renal
  TGI: > 100 µM
COLO 205 colon
  TGI: > 100 µM
NCI-H226 lung
  TGI: > 100 µM
SF-268 CNS
  TGI: > 100 µM
HOP-92 NSCLC
  TGI: > 100 µM
K-562 leukemia
  TGI: > 100 µM
HL-60(TB) leukemia
  TGI: > 100 µM
CAKI-1 renal
  TGI: > 100 µM
